Results published in ChEMBL document CHEMBL3392922, “MMV box screening in the Dd2 P. falciparum strain”.

Tested on: Plasmodium falciparum
Assay: MMV: IC50 determined against P. falciparum Dd2-luc strain using a Malaria Sybr Green I Fluorescence assay. Starting conditions were 1% trophozoite synchronised parasites at 2% haematocrit. Fluorescence detection completed after 48hr incubation at 37 degrees C under 1% O2, 3% CO2 and balance N2.
Assay type: functional, organism-based
Details: Dd2, 48 h

Row | IC50 [nM] | Structure (SMILES)
1 | 332 | O=C(Nc1cccc(C2=NCCN2)c1)Nc1cccc(C2=NCCN2)c1 [IMIDOCARB]
2 | 218 | CN(C)c1ccc(C(O)(c2ccc(N(C)C)cc2)c2ccc(N(C)C)cc2)cc1 [METHYLROSANILINE]
